The assay deals with recombinant guanylate cyclase reporter cell line. Put plainly: Effect on a recombinant guanylate cyclase reporter cell line. It counts as cell-based. The settings on record: in some cases mean values for individual determinations, read-out: MEC (minimum effective concentration). As for the experimental part: B-2. Effect on a Recombinant Guanylate Cyclase Reporter Cell Line
The cellular activity of the compounds according to the invention is determined using a recombinant guanylate cyclase reporter cell line, as described in F. Wunder et al., Anal. Biochem. 339, 104-112 (2005).
Representative MEC values (MEC=minimum effective concentration) for the compounds of the invention are shown in the table below (in some cases as mean values for individual determinations): […]
For `CCOC(=O)CNNC(=O)c1c(C)nc2c(OCc3c(F)cccc3F)cc(C)cn12` [Example 68], the minimal effective concentration is 1 µM. As for `Cc1cc(OCc2c(F)cccc2F)c2nc(C)c(C(=O)NNC(C)C)n2c1` [Example 69], the figure is 10 µM; as for `Cc1cc(OCc2c(F)cccc2F)c2nc(C)c(C(=O)NNC3CCCC3O)n2c1` (stereo not shown) [Example 70], 0.3 µM.

`Cc1cc(OCc2c(F)cccc2F)c2nc(C)c(C(=O)NNC3CCS(=O)(=O)C3)n2c1` (stereo not shown) [Example 71]: the minimal effective concentration was 1 µM. The same measure for `Cc1cc(OCc2c(F)cccc2F)c2nc(C)c(C(=O)NNC3CS(=O)(=O)CC3C)n2c1` (stereo not shown) [Example 72]: 3 µM. The same measure for `Cc1cc(OCc2c(F)cccc2F)c2nc(C)c(C(=O)NNC3CS(=O)(=O)CC3O)n2c1` (stereo not shown) [Example 73]: 3 µM; for `Cc1cc(OCc2c(F)cccc2F)c2nc(C)c(C(=O)NNC3CCCCC3)n2c1` [Example 74]: 3 µM.

For the compound `Cc1cc(OCc2c(F)cccc2F)c2nc(C)c(C(=O)NNC(=O)CN)n2c1` [Example 75, N′-(Aminoacetyl)-8-[(2,6-difluoroenzyl)oxy]-2,6-dimethylimidazo[1,2-a]pyridine-3-carbohydrazide], the minimal effective concentration worked out at 1 µM. As for `Cc1cc(OCc2c(F)cccc2F)c2nc(C)c(C(=O)NNC(=O)CN3CCOCC3)n2c1` [Example 76, 8-[(2,6-Difluorobenzyl)oxy]-2,6-dimethyl-N′-(morpholin-4-ylacetyl)imidazo[1,2-a]pyridine-3-carbohydrazide], the figure is 0.3 µM; as for `Cc1cc(OCc2c(F)cccc2F)c2nc(C)c(C(=O)NOCC3CC3)n2c1` [Example 77, N-(Cyclopropylmethoxy)-8[(2,6-difluorobenzyl)oxy]-2,6-dimethylimidazo[1,2-a]pyridine-3-carboxamide], 0.3 µM. Regarding `Cc1cc(OCc2c(F)cccc2F)c2nc(C)c(C(=O)NN3CCC(C(F)(F)F)C3)n2c1` (stereo not shown) [Example 79, 8-[(2,6-Difluorobenzyl)oxy]-2,6-dimethyl-N-[3-(trifluoromethyl)pyrrolidin-1-yl]imidazo[1,2-a]pyridine-3-carboxamide], the minimal effective concentration stood at 0.1 µM. The same measure for `Cc1cc(OCc2c(F)cccc2F)c2nc(C)c(C(=O)NNC3CCS(=O)(=O)CC3)n2c1` [Example 80, 8-[(2,6-Difluorobenzyl)oxy]-N′-(1,1-dioxidotetrahydro-2H-thiopyran-4-yl)-2,6-dimethylimidazo[1,2-a]pyridine-3-carbohydrazide]: 2 µM. The same measure for `Cc1cc(OCc2c(F)cccc2F)c2nc(C)c(C(=O)NOCC(F)(F)F)n2c1` [Example 81, 8-[(2,6-Difluorobenzyl)oxy]-2,6-dimethyl-N-(2,2,2-trifluoroethoxy)imidazo[1,2-a]pyridine-3-carboxamide]: 0.65 µM.

(Values after US20170057954A1, “SUBSTITUTED IMIDAZO[1,2-A]PYRIDINECARBOXAMIDES AND THEIR USE” (Bayer Pharma Aktiengesellschaft, priority 2014, published 2017).)
